Experimental data from the supplement of paper PMC10307832.

What was measured:
Test in all cases: relative viability (nuclei count vs DMSO), 5 days (fraction); higher = more cells survive
[1] = tested on: NCI-H2085
Outline: (§1)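 Medians of duplicate plates are given as relative viability. That measure is the nuclei count in treated wells divided by the count in vehicle wells. Counts were taken on 4× images of lung cancer cell lines in 1536-well plates, 5 days after pin-tool dosing the day after seeding with one drug alone or a fixed anchor-drug dose plus five library-drug doses (not always all listed) in √10 steps.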

[2] = tested on: NCI-H460
Outline: as §1

[3] = tested on: COR-L23
Outline: as §1

[4] = tested on: NCI-H1563
Outline: as §1

[5] = tested on: NCI-H1355
Outline: as §1

[6] = tested on: NCI-H2023
Outline: as §1

[7] = tested on: HCC-366
Outline: as §1

[8] = tested on: LOU-NH91
Outline: as §1

[9] = tested on: NCI-H838
Outline: as §1

[10] = tested on: NCI-H1975
Outline: as §1

[11] = tested on: BEN
Outline: as §1

[12] = tested on: NCI-H1437
Outline: as §1

[13] = tested on: LU99A
Outline: as §1

[14] = tested on: SK-LU-1
Outline: as §1

[15] = tested on: CAL-12T
Outline: as §1

[16] = tested on: NCI-H1651
Outline: as §1

[17] = tested on: NCI-H358
Outline: as §1

[18] = tested on: NCI-H1650
Outline: as §1

[19] = tested on: NCI-H1793
Outline: as §1

[20] = tested on: NCI-H1734
Outline: as §1

[21] = tested on: NCI-H441
Outline: as §1

Work on `O=c1cc(-c2cccc3c2Sc2ccccc2S3)oc(N2CCOCC2)c1` + CS(=O)(=O)N1CCN(Cc2cc3nc(-c4cccc5[nH]ncc45)nc(N4CCOCC4)c3s2)CC1 [Pictilisib] (partner 1 µM) yielded a relative viability ([1]; first compound 0.08 µM) of 0.44, a relative viability ([1]; first compound 0.253 µM) of 0.586 and a relative viability ([1]; first compound 0.8 µM) of 0.476. The relative viability ([1]; first compound 2.53 µM) was 0.464, the relative viability ([1]; first compound 8 µM) was 0.494 and the relative viability ([2]; first compound 0.08 µM) was 0.289. It also gave a relative viability ([2]; first compound 0.253 µM) of 0.452, a relative viability ([2]; first compound 0.8 µM) of 0.321 and a relative viability ([2]; first compound 2.53 µM) of 0.384. For the same molecule, the relative viability ([2]; first compound 8 µM) was 0.545, the relative viability ([3]; first compound 0.08 µM) was 0.92 and the relative viability ([3]; first compound 0.253 µM) was 1.36. It also gave a relative viability ([3]; first compound 0.8 µM) of 0.934, a relative viability ([3]; first compound 2.53 µM) of 0.705 and a relative viability ([3]; first compound 8 µM) of 1.06. It also gave a relative viability ([4]; first compound 0.08 µM) of 0.649, a relative viability ([4]; first compound 0.253 µM) of 0.64 and a relative viability ([4]; first compound 0.8 µM) of 0.633. For the same molecule, the relative viability ([4]; first compound 2.53 µM) was 0.738, the relative viability ([4]; first compound 8 µM) was 0.661 and the relative viability ([5]; first compound 0.08 µM) was 0.457. The relative viability ([5]; first compound 0.253 µM) was 0.456, the relative viability ([5]; first compound 0.8 µM) was 0.362 and the relative viability ([5]; first compound 2.53 µM) was 0.405. For the same molecule, the relative viability ([5]; first compound 8 µM) was 0.344, the relative viability ([6]; first compound 0.08 µM) was 0.213 and the relative viability ([6]; first compound 0.253 µM) was 0.294. For the same molecule, the relative viability ([6]; first compound 0.8 µM) was 0.244, the relative viability ([6]; first compound 2.53 µM) was 0.218 and the relative viability ([6]; first compound 8 µM) was 0.218. For the same molecule, the relative viability ([7]; first compound 0.08 µM) was 0.138, the relative viability ([7]; first compound 0.253 µM) was 0.129 and the relative viability ([7]; first compound 0.8 µM) was 0.114. The relative viability ([7]; first compound 2.53 µM) was 0.122, the relative viability ([7]; first compound 8 µM) was 0.158 and the relative viability ([8]; first compound 0.08 µM) was 0.519. It also gave a relative viability ([8]; first compound 0.253 µM) of 0.542, a relative viability ([8]; first compound 0.8 µM) of 0.438 and a relative viability ([8]; first compound 2.53 µM) of 0.504. The relative viability ([8]; first compound 8 µM) was 0.531, the relative viability ([9]; first compound 0.08 µM) was 0.415 and the relative viability ([9]; first compound 0.253 µM) was 0.643. The relative viability ([9]; first compound 0.8 µM) was 0.372, the relative viability ([9]; first compound 2.53 µM) was 0.426 and the relative viability ([9]; first compound 8 µM) was 0.408. It also gave a relative viability ([10]; first compound 0.08 µM) of 0.276, a relative viability ([10]; first compound 0.253 µM) of 0.311 and a relative viability ([10]; first compound 0.8 µM) of 0.236. The relative viability ([10]; first compound 2.53 µM) was 0.272, the relative viability ([10]; first compound 8 µM) was 0.269 and the relative viability ([11]; first compound 0.08 µM) was 0.533. For the same molecule, the relative viability ([11]; first compound 0.253 µM) was 0.671, the relative viability ([11]; first compound 0.8 µM) was 0.531 and the relative viability ([11]; first compound 2.53 µM) was 0.591. The relative viability ([11]; first compound 8 µM) was 0.686, the relative viability ([12]; first compound 0.08 µM) was 0.464 and the relative viability ([12]; first compound 0.253 µM) was 0.534. It also gave a relative viability ([12]; first compound 0.8 µM) of 0.395, a relative viability ([12]; first compound 2.53 µM) of 0.373 and a relative viability ([12]; first compound 8 µM) of 0.37. It also gave a relative viability ([13]; first compound 0.08 µM) of 0.294, a relative viability ([13]; first compound 0.253 µM) of 0.341 and a relative viability ([13]; first compound 0.8 µM) of 0.378. It also gave a relative viability ([13]; first compound 2.53 µM) of 0.332, a relative viability ([13]; first compound 8 µM) of 0.418 and a relative viability ([14]; first compound 0.08 µM) of 0.616. The relative viability ([14]; first compound 0.253 µM) was 0.515, the relative viability ([14]; first compound 0.8 µM) was 0.594 and the relative viability ([14]; first compound 2.53 µM) was 0.541. For the same molecule, the relative viability ([14]; first compound 8 µM) was 0.596, the relative viability ([15]; first compound 0.08 µM) was 0.31 and the relative viability ([15]; first compound 0.253 µM) was 0.482. It also gave a relative viability ([15]; first compound 0.8 µM) of 0.418, a relative viability ([15]; first compound 2.53 µM) of 0.32 and a relative viability ([15]; first compound 8 µM) of 0.397. It also gave a relative viability ([16]; first compound 0.08 µM) of 0.512, a relative viability ([16]; first compound 0.253 µM) of 0.857 and a relative viability ([16]; first compound 0.8 µM) of 0.546. The relative viability ([16]; first compound 2.53 µM) was 0.59, the relative viability ([16]; first compound 8 µM) was 0.509 and the relative viability ([17]; first compound 0.08 µM) was 0.311. The relative viability ([17]; first compound 0.253 µM) was 0.328, the relative viability ([17]; first compound 0.8 µM) was 0.351 and the relative viability ([17]; first compound 2.53 µM) was 0.269. It also gave a relative viability ([17]; first compound 8 µM) of 0.33, a relative viability ([18]; first compound 0.08 µM) of 0.509 and a relative viability ([18]; first compound 0.253 µM) of 0.53. It also gave a relative viability ([18]; first compound 0.8 µM) of 0.507, a relative viability ([18]; first compound 2.53 µM) of 0.522 and a relative viability ([18]; first compound 8 µM) of 0.582. The relative viability ([19]; first compound 0.08 µM) was 0.185, the relative viability ([19]; first compound 0.253 µM) was 0.301 and the relative viability ([19]; first compound 0.8 µM) was 0.303. For the same molecule, the relative viability ([19]; first compound 2.53 µM) was 0.303, the relative viability ([19]; first compound 8 µM) was 0.334 and the relative viability ([20]; first compound 0.08 µM) was 0.443. It also gave a relative viability ([20]; first compound 0.253 µM) of 0.564, a relative viability ([20]; first compound 0.8 µM) of 0.465 and a relative viability ([20]; first compound 2.53 µM) of 0.351. It also gave a relative viability ([20]; first compound 8 µM) of 0.578, a relative viability ([21]; first compound 0.08 µM) of 0.533 and a relative viability ([21]; first compound 0.253 µM) of 0.472. It also gave a relative viability ([21]; first compound 0.8 µM) of 0.513, a relative viability ([21]; first compound 2.53 µM) of 0.426 and a relative viability ([21]; first compound 8 µM) of 0.509.
